Source: patent US5994336A, “Method of inhibiting proliferation of cells by administering an aminosterol compound” (priority 1995, dated 1999)
“Also recorded” adds a separate entry of the source.

Legend:
[1] = system: human foreskin fibroblasts; test: Growth inhibition in vitro (absorbance at 600 nm); format: cell-based; conditions: 10 μg/ml; FIG. 3C
[2] = system: Xenopus tadpole, stage 59-60; test: Tadpole assay; format: in vivo, Xenopus laevis; conditions: 10 μg/ml; for pharmacological response in tadpole (words): stage 59-60
Text: For example, substances that destroy all of the animal's epithelium, both adult and embryonic, could be regarded as toxic.
The volume of liquid is sufficient for the animal to swim freely and drink from the solution. […] If the volume of liquid is not sufficient to permit oral intake, the effects that are observed would result from absorption through the surface epithelium.
In another embodiment of this assay, a solution of a compound in water can be injected directly into the abdomen of the animal using standard techniques.
After an amount of time, typically about 60 minutes, the occlusion of blood flow through capillaries in the tadpole's tail are observed under an inverted microscope at a magnification of roughly 100×.
In the assay, each of the steroids was dissolved in 100 ml of distilled water at a concentration of 10 μg/ml. Stage 59-60 Xenopus tadpoles were introduced and evaluated by light microscopy and gross observation 1 hour later.

[3] = system: human microvascular cells; test: Inhibition of endothelial cell cord formation in vitro; format: cell-based; conditions: words
Text: Endothelial cells have the capacity in vitro to form tubular aggregates resembling capillaries in various early stages of formation. This conversion occurs under relatively specific conditions, in which essential growth factors along with an effective substratum are provided. It has been shown that both the interaction of growth factors with the endothelial cell and its attachment to a substratum activate the NHE. The activation of this exchanger is believed to be required for subsequent morphologic transformation of the endothelial cell into a multicellular tubular structure.
To assess the effect of compounds on the cord-like structures formed by human microvascular cells when plated in the presence of VEGF (Vascular Endothelial Growth Factor) and basic fibroblast growth factor on a collagen matrix, a standard cord formation assay was used.

[4] = listed as Compound 1256 (Squalamine)

## CC(C)[C@@H](CC[C@@H](C)[C@H]1CC[C@H]2[C@@H]3[C@H](O)C[C@H]4C[C@@H](NCCCNCCCCN)CC[C@]4(C)[C@H]3CC[C@]12C)OS(=O)(=O)O [squalamine]
[1]
  growth of fibroblast line: no effect
[2]
  tissues or functions not affected in tadpole: unaltered blood flow through the fine capillaries of the hands and feet
  pharmacological response in tadpole (words): blood flow through the capillaries of the tail shut down; also recorded: common vascular occlusive effect
[2]; [4]
  pharmacological response in tadpole (words): Vascular occlusion in fine capillaries of tail
  tissues or functions not affected in tadpole: No effect on vascular flow through hands or feet
[3]
  effect on cell viability or proliferation at cord-inhibiting concentrations: does not appear to profoundly affect cell viability or proliferation
